Assay results taken from publication PMC10610214 (Pharmaceuticals, 2023).

Columns and labels:
BuChE [1] = molecular target: T1, BuChE (Equus caballus, UniProt P81908); assay: Reversibility of BuChE inhibition, dilution method; format: biochemical; conditions: for BuChE activity after dilution (reversibility): control 100
T1 construct: BuChE (from equine serum); purchased Sigma Chemical Company (St. Louis, MO, USA); host or cells: equine serum
Procedure: The activities of the diluted residual enzymes were measured by Ellman’s modified method.
Reversibility studies were performed using a modified Ellman’s dilution method to measure the activity of the diluted residual enzyme. The AChE/BuChE (0.5 U/mL), ATCI/BTCI (0.01 M) and DTNB (0.01 M) were diluted with phosphate buffer pH = 7.4. […] At the end of incubation, 20 μL of DTNB solution was added to them. […] All the measured results are expressed as the mean ± SEM of the three independent experiments.

mice = assay: LD50 determination in mice (Bliss method); format: in vivo, C57BL mice; conditions: intragastric 7 days
Procedure: (§1) Male C57BL mice (18–23 g; 8 weeks old) were purchased from the Experimental Center of Anhui University of Traditional Chinese Medicine. Mice were reared in a temperature and humidity controlled environment with free access to food and water, with self-adaptive rearing for 4 days.
(§2) Thirty mice were randomly divided into five groups, and the death of each group was counted after 7 days of intragastric administration (100, 80, 64, 51.2, 40.96 mg/kg). The Bliss method was used to calculate the LD50 and 95% confidence limit.

[2] = LD50 determination in mice (Bliss method); format: in vivo, C57BL mice; conditions: male, C57BL, mouse, in vivo, po, intragastric administration 7 days, Bliss method, read-out: LD50 (95% confidence limit)
Procedure: as §1, §2

IL-1β in BV2 cells = assay: IL-1β secretion in LPS-stimulated BV2 cells (ELISA); format: cell-based; conditions: Mus musculus, BV-2, 24 h, read-out: IL-1β inhibition IC50
Procedure: The cytotoxicity of compounds on BV2 cells were evaluated by MTT assay and similar to those described in Section 2.5. The NO concentrations in medium were determined using Griess Reagent assay (Beyotime) in accordance with a previously reported method. Nitrite is reduced to nitrogen oxide using Griess Reagent I. Nitrogen oxide then reacts with Griess Reagent II forming a stable product that can be detected by its absorbance at […]. The two-step assay is simple, fast, and can detect nitrite levels as low as 1 nmol/well. BV2 cells were seeded into a 48-well plate at a density of 6.0 × 10^4 cells per well. After the cells were incubated overnight, the old medium was discarded. Then, the cells were pretreated with various concentrations (10, 5, 1, 0.5, and 0.1 μM) of compounds for 1 h and then co-incubated with LPS (1 μg/mL, 30 μL/well) for 24 h. After 24 h, the cell supernatant (50 μL/well) was placed into a new 96-well plate for experiment. […] The absorbance at […] was measured by a microplate reader.
The contents of TNF-α and IL-β in the cell supernatant were measured via ELISA (Jyimei, Wuhan, China) following the manufacturer’s instructions.

HepG2 cells = assay: Hepatotoxicity in HepG2 cells (MTT); format: cell-based; conditions: 10, 30 and 50 μM
Procedure: The hepatotoxicity of compound 4h in normal AML-12 hepatocytes and HepG2 liver cancer cells was examined by MTT method. AML-12 cells and HepG2 cells were seeded into 96-well plates at a density of 5.0 × 10^3 cells per well, respectively. After the cells were incubated overnight, the old medium was discarded. The cells were incubated for 48 h with fresh medium containing various concentrations of the test compound. After 48 h of incubation, 20 μL of MTT (5 mg/mL) was added to each well and incubate for an additional 4 h. Formazan was dissolved with DMSO (150 μL). […]

BuChE [3] = molecular target: T1, BuChE; assay: Kinetic study of BuChE inhibition (Lineweaver–Burk); format: biochemical
Procedure: The specific steps are similar to those described in Section 4.3 for the enzyme inhibition assay. In brief, 100 μL of different concentrations of 4h (0, 0.075, 0.15, and 0.3 μM)/4h (0, 3, 6, and 12 μM) and 100 μL of different concentrations of AChE/BuChE (1, 0.5, 0.25, 0.125, and 0.0625 U/mL) were added into 48-well plates and then co-incubated at 37 °C for 30 min. After the end of incubation, 100 μL of ATCI/BTCI (0.35 mM), 100 μL of PB solution, and 100 μL DTNB (0.35 mM) were added, and then changes in absorbance were measured at different times at 412 nm by multifunctional microplate reader, and the catalytic reaction rate of AChE/BuChE was determined. All concentrations are final. With the enzyme reaction rate V as the ordinate and AChE/BuChE concentration as the abscissa, the curve was drawn to determine the reversibility of the compound to AChE/BuChE.
In order to determination of inhibition types and the constant of AChE/BuChE, the concentration of AChE/BuChE (0.5 U/mL) in the reaction system was fixed. Five different substrate concentrations and four different concentrations of test compound 4h were used to measure the absorbance changes at different times at 412 nm. The reciprocal of the enzymatic reaction rate (1/V) was taken as the ordinate, and the reciprocal of the substrate ATCI/BTCI concentration (1/S) was taken as the abscissa.
[…]. […]

T1 sequence (P81908 whole entry): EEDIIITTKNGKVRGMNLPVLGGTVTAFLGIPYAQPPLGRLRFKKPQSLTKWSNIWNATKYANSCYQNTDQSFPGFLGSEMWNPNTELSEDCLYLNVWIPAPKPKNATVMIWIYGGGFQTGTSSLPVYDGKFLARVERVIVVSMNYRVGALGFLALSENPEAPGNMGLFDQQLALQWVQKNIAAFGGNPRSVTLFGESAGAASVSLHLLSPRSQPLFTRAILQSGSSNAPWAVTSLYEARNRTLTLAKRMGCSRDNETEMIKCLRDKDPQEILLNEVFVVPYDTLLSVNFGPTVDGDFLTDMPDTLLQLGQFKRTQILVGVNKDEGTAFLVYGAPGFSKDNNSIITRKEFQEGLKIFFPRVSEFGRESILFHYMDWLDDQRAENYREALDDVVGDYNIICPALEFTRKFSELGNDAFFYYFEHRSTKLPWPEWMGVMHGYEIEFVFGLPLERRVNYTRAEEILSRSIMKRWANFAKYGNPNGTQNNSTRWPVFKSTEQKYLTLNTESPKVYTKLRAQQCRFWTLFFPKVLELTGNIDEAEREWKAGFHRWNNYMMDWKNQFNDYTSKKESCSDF

In the case of `O=C1c2cc(NS(=O)(=O)c3ccccc3F)ccc2-n2c1nc1ccccc1c2=O` [4h], the “Reversibility of BuChE inhibition” value (BuChE [1]; dilution method) is reported as “reversible inhibitor”, the “BuChE activity after dilution (reversibility)” value (BuChE [1]; final inhibitor 0.1 × IC50 after 100-fold dilution) is reported as 92.2 ± 0.52 and the “BuChE activity after dilution (reversibility)” value (BuChE [1]; final inhibitor 1 × IC50 after 100-fold dilution) is reported as 84.9 ± 1.2. The “Mortality rate (%)” value (mice; 40.96 mg/kg) was 0%, the Number of deaths (mice; 40.96 mg/kg) was 0 and the “Mortality rate (%)” value (mice; 51.2 mg/kg) was 0%. The Number of deaths (mice; 51.2 mg/kg) was 0, the “Mortality rate (%)” value (mice; 64 mg/kg) was 16.7% and the Number of deaths (mice; 64 mg/kg) was 1. The “Mortality rate (%)” value (mice; 80 mg/kg) was 50%, the Number of deaths (mice; 80 mg/kg) was 3 and the “Mortality rate (%)” value (mice; 100 mg/kg) was 66.7%. The Number of deaths (mice; 100 mg/kg) was 4, the LD50 at 7 days [2] was 84.8 mg/kg and the IC50 (IL-1β in BV2 cells) was 1780 ± 210 nM. For the same molecule, the “Hepatotoxicity in HepG2 cells” value (HepG2 cells) was “had no toxicity”, the BuChE inhibition type (BuChE [3]; Lineweaver–Burk double-reciprocal plot) was “mixed-type inhibition” and the Ki (BuChE [3]; Lineweaver–Burk secondary plot) was 5.33 µM.
